Measurements taken from US20210113598A1, “Combination of MIDH1 Inhibitors and DNA Hypomethylating Agents (HMA)” (Deutsches Krebsforschungszentrum (DKFZ) Stiftung des …, priority 2017, published 2021).
Each block holds one compound with its values, some of them ahead of it.

How the values were obtained:
[1] = system: human IDH1 mutated AML cells; experiment: Clonogenic progenitor (colony formation) assay, IDH1 mutated AML patient cells; type: cell-based; conditions: Compound A1 alone
Method: (§1) Colony-forming cell (CFC) units were assayed in methylcellulose (Methocult H4100; StemCell Technologies Inc.) supplemented with 10 ng/mL IL3, 10 ng/mL GM-CSF, 50 ng/mL SCF, 50 ng/mL FLT3-ligand and 3 U/mL EPO (PeproTech). […] of Compound A1 was added in combination with increasing concentrations of Azacytidine to methylcellulose containing 10exp5 human mononuclear cells and were plated in duplicate. Colonies were evaluated microscopically 10 to 14 days after plating by standard criteria. Graphs was plotted as proportion of colonies relative to vehicle treated cells.

IDH1 wildtype AML cells = experiment: Clonogenic progenitor (colony formation) assay, IDH1 wildtype AML patient cells; type: cell-based, human; conditions: Compound A1 alone
Method: as §1

human IDH1 mutated AML [2] = conditions: background statement, oral; cited from earlier work
human IDH1 mutated AML [3] = experiment: Transplantation and treatment of mice (PDX model of IDH1 mutated AML); conditions: for leukemic cells in peripheral blood: monotherapy, week 4 until end of treatment at week 12, Compound A1 150 mg/kg p.o. once daily, azacitidine 1 mg/kg s.c. days 1-5
Method: Leukemic cells from an AML patient with mutated DH1, NPM1, FLT3-TKD and NRAS were xenografted in immunocompromised mice. One million patient-derived AML cells collected from bone marrow and spleen of leukemic mice were injected intravenously in the tail vein of sublethally (3 Gy) irradiated NSG mice. […] The proportion of leukemic cells in peripheral blood of mice was measured with a human-specific CD45 antibody by tail vein bleeds and FACS analysis. The control groups were treated with either vehicle, Compound A1 150 mg/kg once daily p.o. continuously, or azacitidine 1 mg/kg once daily s.c. days 1-5, repeated once after 28 days. The test groups were treated with Compound A1 and azacitidine in the doses mentioned above either starting both drugs on day 1 (parallel group) or starting azacitidine on day 1 but Compound A1 on day 6 (sequential group).

- IC50 [1]: 100 nM
Structure (SMILES): C[C@H]1C[C@@H](n2c(Nc3ccc(OC(F)(F)F)cc3)nc3cc(CCC(=O)O)ccc32)CC(C)(C)C1 [Compound A1, 3-(2-{[4-(trifluoromethoxy)phenyl]amino}-1-[(1R,5R)-3,3,5-trimethylcyclohexyl]-1H-benzimidazol-5-yl)propanoic acid]
- colony formation (IDH1 wildtype AML cells): not affected
- anti-leukemic activity in PDX models of IDH1 mutant AML in vivo (human IDH1 mutated AML [2]): strong anti-leukemic activity
- leukemia in week 20 (human IDH1 mutated AML [3]; Compound A1 alone, 8 weeks after stopping the treatment): relapsed
- leukemic cells in peripheral blood (human IDH1 mutated AML [3]): declined

Structure (SMILES): Nc1ncn([C@@H]2O[C@H](CO)[C@@H](O)[C@H]2O)c(=O)n1 [azacitidine, 5-azacytidine, reference compound]
- leukemic cells in peripheral blood (human IDH1 mutated AML [3]): constantly increased
